Data: patent publication US9056069B2, “Cancer therapy based on tumor associated antigens derived from cyclin D1” (IMMATICS BIOTECHNOLOGIES GMBH, priority 2010, dated 2015)
“Also recorded” adds a separate entry of the source.

Experiments:
HLA class-II = test: Binding to HLA class-II; set-up: species or system human
CTL = conditions: healthy donors, colon cancer and mantle cell lymphoma patients; autologous CD40-activated B cells as APCs; cited from earlier work
mRCC = type: in vivo, human
Text: Some patients received a prior TKI therapy with sunitinib or sorafenib, others a prior cytokine therapy with interferon or interleukin.
Both patient groups were followed up for progression-free survival (PFS) and overall survival (OS).

[1] = system: HLA-A*02 positive tumor cells endogenously expressing Cyclin D1; conditions: allo-restricted T cells of HLA-A2-negative donors; cited from earlier work

NPPSMVAAGSVVAAV (listed as Homo sapiens) [CCN-003, cyclin D1-derived peptide, aa 198-212]
HLA restriction (HLA class-II): appears DRB1*0401 restricted | binding to HLA class-II (HLA class-II): binds to HLA class-II

LLGATCMFV (listed as Homo sapiens) [CCN-001, cyclin D1-derived peptide, aa 101-109]
generation of epitope-specific CTL (CTL): could be generated from HLA-A2+ donors | survival of patients responding against CCN-001 versus non-CCN-001-responding patients (mRCC; all vaccinated patients): significant longer survival; also recorded: survive significantly longer | favorable effect of T cell response against CCN-001 on survival (mRCC; patient group pretreated with cyclophosphamide): even more evident | lysis of tumor cells by T cell clones recognizing the peptide [1]: could lyse HLA-A*02 positive tumor cells endogenously expressing Cyclin D1

O=P1(N(CCCl)CCCl)NCCCO1 (stereo not shown) [cyclophosphamide]
effect of prior low-dose cyclophosphamide treatment on outcome of vaccine treatment (mRCC; cyclophosphamide 300 mg/m2 single infusion before vaccination): further significantly improved the outcome
